Data reported in patent US20150150253A1, “CROP ENHANCEMENT COMPOSITIONS” (Syngenta Participations AG, priority 2012, published 2015).
Values joined by “and” are separate entries in the source; they are usually repeats but may differ in a detail not shown here. Equal entries are not always repeated. Where two headings read alike, the source gives them in different places.

Assays:
Pythium ultimum = Pythium ultimum / liquid culture (seedling damping off), well plate mixture test; type: cell-based
Gaeumannomyces graminis = Gaeumannomyces graminis / liquid culture (take-all of cereals), well plate mixture test; type: cell-based
Ustilago nuda = Ustilago nuda / liquid culture (barley loose smut), well plate mixture test; type: cell-based
[1] = system: Thanatephorus cucumeris (Rhizoctonia solani)
Excerpt: A synergistic effect exists whenever the action of an active ingredient combination is greater than the sum of the actions of the individual components.
ppm=milligrams of active ingredient (=a.i.) per liter of spray mixture X=% action by active ingredient A) using p ppm of active ingredient Y=% action by active ingredient B) using q ppm of active ingredient. According to COLBY, the expected (additive) action of active ingredients A)+B) using p+q ppm of active ingredient is
If the action actually observed (O) is greater than the expected action (E), then the action of the combination is super-additive, i.e. there is a synergistic effect. In mathematical terms, synergism corresponds to a positive value for the difference of (O-E). In the case of purely complementary addition of activities (expected activity), said difference (O-E) is zero. A negative value of said difference (O-E) signals a loss of activity compared to the expected activity.
Method Description Liquid Culture Tests in Well Plates for Mixtures
Thanatephorus cucumeris (Rhizoctonia solani)/Liquid Culture (Foot Rot, Damping-Off)
Mycelia fragments of a newly grown liquid culture of the fungus are directly mixed into nutrient broth (PDB potato dextrose broth). After placing a (DMSO) solution of the test compounds into a microtiter plate (96-well format), the nutrient broth containing the fungal material is added. The test plates are incubated at 24° C. and the inhibition of growth is determined photometrically 3-4 days after application and percent antifungal activity relative to the untreated check is calculated.

[2] = system: Monographella nivalis (Microdochium nivale); test: Monographella nivalis (Microdochium nivale) / liquid culture (foot rot cereals), well plate mixture test; type: cell-based
Fusarium culmorum = test: microbe, parasite or virus in culture; type: cell-based; settings: read-out: % efficacy observed
[3] = Thanatephorus cucumeris, read-out: % efficacy observed

## CO/C=C(/C(=O)OC)c1ccccc1Oc1cc(Oc2ccccc2C#N)ncn1 [Azoxystrobin, azoxystrobin]
Pythium ultimum; Azoxystrobin 0.0250 mg ai/l
  % efficacy observed: 14.0%
Pythium ultimum; Azoxystrobin 0.0500 mg ai/l
  % efficacy observed: 35.6%
Pythium ultimum; Azoxystrobin 0.1000 mg ai/l
  % efficacy observed: 45.3%
Gaeumannomyces graminis; Azoxystrobin 0.0008 mg ai/l
  % efficacy observed: 40.7%
Gaeumannomyces graminis; Azoxystrobin 0.0016 mg ai/l
  % efficacy observed: 67.0%
Gaeumannomyces graminis; Azoxystrobin 0.0031 mg ai/l
  % efficacy observed: 74.8%

## COCC(=O)N(c1c(C)cccc1C)[C@H](C)C(=O)OC [Mefenoxam, mefenoxam]
Pythium ultimum; Mefenoxam 0.0078 mg ai/l
  % efficacy observed: 34.1%
Pythium ultimum; Mefenoxam 0.0156 mg ai/l
  % efficacy observed: 37.8%
Pythium ultimum; Mefenoxam 0.0313 mg ai/l
  % efficacy observed: 70.2%
Pythium ultimum; Mefenoxam 0.0625 mg ai/l
  % efficacy observed: 71.3%
Pythium ultimum; Mefenoxam 0.1250 mg ai/l
  % efficacy observed: 84.4%

## N#Cc1c[nH]cc1-c1cccc2c1OC(F)(F)O2 [Fludioxonyl]
Ustilago nuda; Ustilago nuda, read-out: % efficacy observed
  Emax at 0.0313 µg/mL: 33.1%
[1]; [3]
  Emax at 0.125 µg/mL: 13.8%
  Emax at 0.25 µg/mL: 66.5%
  Emax at 0.5 µg/mL: 60.5%
  Emax at 1 µg/mL: 86.8%

## CC(C)(C)C(O)(CCc1ccc(Cl)cc1)Cn1cncn1 (stereo not shown) [Tebuconazole, tebuconazole]
Gaeumannomyces graminis; Gaeumannomyces graminis, Tebuconazole 0.2500 mg ai/l, read-out: % efficacy observed
  Emax at 0.25 µg/mL: 43.5%
Gaeumannomyces graminis; Gaeumannomyces graminis, Tebuconazole 0.5000 mg ai/l, read-out: % efficacy observed
  Emax at 0.5 µg/mL: 47.5%
Gaeumannomyces graminis; Gaeumannomyces graminis, Tebuconazole 1.0000 mg ai/l, read-out: % efficacy observed
  Emax at 1 µg/mL: 61%
Gaeumannomyces graminis; Gaeumannomyces graminis, Tebuconazole 2.0000 mg ai/l, read-out: % efficacy observed
  Emax at 2 µg/mL: 74%
[1]; Thanatephorus cucumeris, read-out: % efficacy observed, Tebuconazole 1.0000 mg ai/l
  Emax at 1 µg/mL: 0%
[1]; Thanatephorus cucumeris, read-out: % efficacy observed, Tebuconazole 2.0000 mg ai/l
  Emax at 2 µg/mL: 0%

## Cn1cc(C(=O)Nc2ccccc2C2CC2C2CC2)c(C(F)F)n1 (stereo not shown) [Sedaxane, sedaxane]
Gaeumannomyces graminis; Sedaxane 1.5000 mg ai/l
  % efficacy observed: 46.7%
Ustilago nuda; Sedaxane 0.0117 mg ai/l
  % efficacy observed: 55.0%
[1]; Sedaxane 0.0469 mg ai/l
  % efficacy observed: 0.0%
[1]; Sedaxane 0.0938 mg ai/l
  % efficacy observed: 41.1%
[1]; Sedaxane 0.1875 mg ai/l
  % efficacy observed: 71.1%
[1]; Sedaxane 0.3750 mg ai/l
  % efficacy observed: 72.2%
[1]; Sedaxane 0.7500 mg ai/l
  % efficacy observed: 72.2%

## Cc1nn(C)c(F)c1C(=O)Nc1ccccc1C(C)CC(C)C (stereo not shown) [Penflufen, penflufen]
Ustilago nuda; Penflufen 0.0039 mg ai/l
  % efficacy observed: 23.1%
[2]; Penflufen 1.0000 mg ai/l
  % efficacy observed: 19.4%
[2]; Penflufen 2.0000 mg ai/l
  % efficacy observed: 56.8%
[1]; Penflufen 0.0156 mg ai/l
  % efficacy observed: 20.8%
[1]; Penflufen 0.0313 mg ai/l
  % efficacy observed: 7.5%
[1]; Penflufen 0.0625 mg ai/l
  % efficacy observed: 42.0%
[1]; Penflufen 0.1250 mg ai/l
  % efficacy observed: 64.3%
[1]; Penflufen 0.2500 mg ai/l
  % efficacy observed: 83.3%

## c1ccc2[nH]c(-c3cscn3)nc2c1 [Thiabendazole, thiabendazole]
Fusarium culmorum
  Emax at 3 µg/mL: 45.3%
  Emax at 6 µg/mL: 71.7%

## Cn1cc(C(=O)Nc2ccccc2-c2cc(F)c(F)c(F)c2)c(C(F)F)n1 [Fluxapyroxad, fluxapyroxad]
[2]; Fluxapyroxad 0.1875 mg ai/l
  % efficacy observed: 22.2%
[2]; Fluxapyroxad 0.3750 mg ai/l
  % efficacy observed: 55.5%
[2]; Fluxapyroxad 0.7500 mg ai/l
  % efficacy observed: 65.4%
[1]; Fluxapyroxad 0.1875 mg ai/l
  % efficacy observed: 29.7%
[1]; Fluxapyroxad 0.3750 mg ai/l
  % efficacy observed: 61.8%
[1]; Fluxapyroxad 0.7500 mg ai/l
  % efficacy observed: 71.9%
[1]; Fluxapyroxad 1.5000 mg ai/l
  % efficacy observed: 67.9%

## COc1ccc(CC(=O)N(O)Cc2ccc(F)cc2)cc1 [Compound D4]
Pythium ultimum; Globisporangium ultimum, D4 0.0391 mg ai/l, read-out: % efficacy observed
  Emax at 0.0391 µg/mL: 0%
Pythium ultimum; Globisporangium ultimum, D4 0.1563 mg ai/l, read-out: % efficacy observed
  Emax at 0.1563 µg/mL: 0%
Pythium ultimum; Globisporangium ultimum, D4 0.3125 mg ai/l, read-out: % efficacy observed
  Emax at 0.3125 µg/mL: 0%
Pythium ultimum; Globisporangium ultimum, D4 0.6250 mg ai/l, read-out: % efficacy observed
  Emax at 0.625 µg/mL: 0%
Pythium ultimum; Globisporangium ultimum, D4 1.2500 mg ai/l, read-out: % efficacy observed
  Emax at 1.25 µg/mL: 0%
Pythium ultimum; Globisporangium ultimum, D4 2.5000 mg ai/l, read-out: % efficacy observed
  Emax at 2.5 µg/mL: 0%
Gaeumannomyces graminis; D4 0.000000 mg ai/l
  % efficacy observed: 5.3%
Gaeumannomyces graminis; Gaeumannomyces graminis, D4 0.0781 mg ai/l, read-out: % efficacy observed
  Emax at 0.0781 µg/mL: 0%
Gaeumannomyces graminis; Gaeumannomyces graminis, D4 0.1563 mg ai/l, read-out: % efficacy observed
  Emax at 0.1563 µg/mL: 0%
Gaeumannomyces graminis; Gaeumannomyces graminis, D4 0.3125 mg ai/l, read-out: % efficacy observed
  Emax at 0.3125 µg/mL: 0%
Gaeumannomyces graminis; Gaeumannomyces graminis, D4 0.6250 mg ai/l, read-out: % efficacy observed
  Emax at 0.625 µg/mL: 0%
Gaeumannomyces graminis; Gaeumannomyces graminis, D4 1.2500 mg ai/l, read-out: % efficacy observed
  Emax at 1.25 µg/mL: 0%
Gaeumannomyces graminis; Gaeumannomyces graminis, D4 2.5000 mg ai/l, read-out: % efficacy observed
  Emax at 2.5 µg/mL: 0%
Gaeumannomyces graminis; Gaeumannomyces graminis, D4 5.0000 mg ai/l, read-out: % efficacy observed
  Emax at 5 µg/mL: 0%
Gaeumannomyces graminis; Gaeumannomyces graminis, D4 10.0000 mg ai/l, read-out: % efficacy observed
  Emax at 10 µg/mL: 0%
Gaeumannomyces graminis; Gaeumannomyces graminis, D4 20.0000 mg ai/l, read-out: % efficacy observed
  Emax at 20 µg/mL: 0%
Ustilago nuda; D4 0.0391 mg ai/l
  % efficacy observed: 8.7%
Ustilago nuda; D4 0.0781 mg ai/l
  % efficacy observed: 2.5% and 0.2%
Ustilago nuda; D4 0.1563 mg ai/l
  % efficacy observed: 3.7%
Ustilago nuda; Ustilago nuda, D4 0.3125 mg ai/l, read-out: % efficacy observed
  Emax at 0.3125 µg/mL: 0%
Ustilago nuda; Ustilago nuda, D4 0.6250 mg ai/l, read-out: % efficacy observed
  Emax at 0.625 µg/mL: 0%
Ustilago nuda; Ustilago nuda, D4 1.2500 mg ai/l, read-out: % efficacy observed
  Emax at 1.25 µg/mL: 0%
Ustilago nuda; Ustilago nuda, D4 2.5000 mg ai/l, read-out: % efficacy observed
  Emax at 2.5 µg/mL: 7%
Ustilago nuda; Ustilago nuda, D4 20.0000 mg ai/l, read-out: % efficacy observed
  Emax at 20 µg/mL: 1.3%
[2]; Monographella nivalis, D4 0.1563 mg ai/l, read-out: % efficacy observed
  Emax at 0.1563 µg/mL: 6.7%
[2]; Monographella nivalis, D4 0.3125 mg ai/l, read-out: % efficacy observed
  Emax at 0.3125 µg/mL: 10.2%
[2]; Monographella nivalis, D4 0.6250 mg ai/l, read-out: % efficacy observed
  Emax at 0.625 µg/mL: 0%
[2]; Monographella nivalis, D4 2.5000 mg ai/l, read-out: % efficacy observed
  Emax at 2.5 µg/mL: 2.8%
[2]; Monographella nivalis, D4 5.0000 mg ai/l, read-out: % efficacy observed
  Emax at 5 µg/mL: 2.1%
[2]; Monographella nivalis, D4 10.0000 mg ai/l, read-out: % efficacy observed
  Emax at 10 µg/mL: 6.4%
[2]; Monographella nivalis, D4 20.0000 mg ai/l, read-out: % efficacy observed
  Emax at 20 µg/mL: 1.4%
Fusarium culmorum
  Emax at 10 µg/mL: 0%
  Emax at 20 µg/mL: 0%
[1]; D4 0.6250 mg ai/l
  % efficacy observed: 2.1% and 4.6%
[1]; Thanatephorus cucumeris, read-out: % efficacy observed, D4 0.0781 mg ai/l
  Emax at 0.0781 µg/mL: 0%
[1]; Thanatephorus cucumeris, read-out: % efficacy observed, D4 0.1563 mg ai/l
  Emax at 0.1563 µg/mL: 0%
[1]; Thanatephorus cucumeris, read-out: % efficacy observed, D4 20.0000 mg ai/l
  Emax at 20 µg/mL: 0%

## CC1COC(Cn2cncn2)(c2ccc(Oc3ccc(Cl)cc3)cc2Cl)O1 (stereo not shown) [Difenconazole]
Gaeumannomyces graminis; Gaeumannomyces graminis, Difenconazole 0.5000 mg ai/l, read-out: % efficacy observed
  Emax at 0.5 µg/mL: 0%
Gaeumannomyces graminis; Gaeumannomyces graminis, Difenconazole 1.0000 mg ai/l, read-out: % efficacy observed
  Emax at 1 µg/mL: 10.6%
Gaeumannomyces graminis; Gaeumannomyces graminis, Difenconazole 2.0000 mg ai/l, read-out: % efficacy observed
  Emax at 2 µg/mL: 39%
Ustilago nuda; Ustilago nuda, Difenconazole 0.5000 mg ai/l, read-out: % efficacy observed
  Emax at 0.5 µg/mL: 30%
Ustilago nuda; Ustilago nuda, Difenconazole 1.0000 mg ai/l, read-out: % efficacy observed
  Emax at 1 µg/mL: 45.9%
Ustilago nuda; Ustilago nuda, Difenconazole 2.0000 mg ai/l, read-out: % efficacy observed
  Emax at 2 µg/mL: 60.5%
[1]; Thanatephorus cucumeris, read-out: % efficacy observed, Difenconazole 0.5000 mg ai/l
  Emax at 0.5 µg/mL: 0%
[1]; Thanatephorus cucumeris, read-out: % efficacy observed, Difenconazole 1.0000 mg ai/l
  Emax at 1 µg/mL: 0%
